Experimental data from ChEMBL document CHEMBL1132407, “Combinatorial library of serine and cysteine protease inhibitors that interact with both the S and S' binding sites” (J Med Chem, 1999).
pKi: −log10 of the molar value.

Assays:
Plasminogen = Plasminogen (Homo sapiens, UniProt P00747); test: Inhibitory activity against plasmin
Papain = target: T1, Papain (Carica papaya, UniProt P00784); test: Inhibitory activity against papain
T1 sequence (P00784 whole entry): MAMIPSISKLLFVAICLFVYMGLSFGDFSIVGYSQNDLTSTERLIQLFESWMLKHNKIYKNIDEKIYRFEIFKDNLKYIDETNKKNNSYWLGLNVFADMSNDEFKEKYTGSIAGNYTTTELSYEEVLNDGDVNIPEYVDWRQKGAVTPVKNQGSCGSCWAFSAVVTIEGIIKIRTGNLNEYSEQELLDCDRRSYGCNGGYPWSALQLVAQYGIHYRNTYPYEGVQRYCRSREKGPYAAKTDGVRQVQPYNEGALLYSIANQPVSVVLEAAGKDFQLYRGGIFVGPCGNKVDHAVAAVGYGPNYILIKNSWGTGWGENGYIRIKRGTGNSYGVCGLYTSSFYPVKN

Cathepsin B = Cathepsin B (Homo sapiens, UniProt P07858); test: Inhibitory activity against Cathepsin B

Chain of Plasminogen (P00747 97-580 limits assumed): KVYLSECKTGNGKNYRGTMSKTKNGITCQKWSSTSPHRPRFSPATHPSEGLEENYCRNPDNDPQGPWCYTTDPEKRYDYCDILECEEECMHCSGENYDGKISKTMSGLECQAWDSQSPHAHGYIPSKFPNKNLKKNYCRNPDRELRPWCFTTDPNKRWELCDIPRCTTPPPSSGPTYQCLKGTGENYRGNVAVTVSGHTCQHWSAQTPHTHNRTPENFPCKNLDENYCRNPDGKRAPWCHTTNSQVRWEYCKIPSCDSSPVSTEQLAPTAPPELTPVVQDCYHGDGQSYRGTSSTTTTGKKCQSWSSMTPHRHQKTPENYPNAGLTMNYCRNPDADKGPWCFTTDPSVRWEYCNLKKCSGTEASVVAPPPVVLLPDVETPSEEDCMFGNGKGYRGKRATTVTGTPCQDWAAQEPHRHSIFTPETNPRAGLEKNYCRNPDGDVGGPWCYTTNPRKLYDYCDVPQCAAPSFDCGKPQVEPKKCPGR
Chain of Plasminogen (P00747 581-810 limits assumed): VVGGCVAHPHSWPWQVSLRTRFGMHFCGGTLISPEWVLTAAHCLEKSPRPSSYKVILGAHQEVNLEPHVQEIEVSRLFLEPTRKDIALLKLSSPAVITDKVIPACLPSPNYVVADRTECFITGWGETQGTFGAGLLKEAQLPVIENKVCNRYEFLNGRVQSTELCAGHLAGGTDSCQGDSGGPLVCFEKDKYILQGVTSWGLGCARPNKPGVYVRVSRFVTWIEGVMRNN

Structure (SMILES)	pKi (Plasminogen)	pKi (Papain)	pKi (Cathepsin B)
O=C(CC[C@H]1CCC[C@@H](NC(=O)[C@H](Cc2c[nH]c3ccccc23)NC(=O)OCc2ccccc2)C1=O)N[C@@H](Cc1ccccc1)C(=O)O (stereo in doubt; 16A)	4.00	3.60	
O=C(CC[C@H]1CCC[C@@H](NC(=O)[C@H](Cc2ccccc2)NC(=O)OCc2ccccc2)C1=O)N[C@@H](Cc1ccccc1)C(=O)O	2.52	3.06	2.96
O=C(CC[C@H]1CCC[C@@H](NC(=O)[C@H](Cc2c[nH]c3ccccc23)NC(=O)OCc2ccccc2)C1=O)N[C@@H](Cc1c[nH]c2ccccc12)C(=O)O (stereo in doubt)	5.00		
O=C(CC[C@H]1CCC[C@@H](NC(=O)[C@H](Cc2c[nH]c3ccccc23)NC(=O)OCc2ccccc2)C1=O)N[C@@H](Cc1c[nH]c2ccccc12)C(=O)O (stereo in doubt; 15A)	5.30	3.42	

Continued, values first:

pKi (Plasminogen)	pKi (Papain)	pKi (Cathepsin B)	Structure (SMILES)
3.82			O=C(CC[C@H]1CCC[C@@H](NC(=O)[C@H](Cc2c[nH]c3ccccc23)NC(=O)OCc2ccccc2)C1=O)N[C@@H](Cc1ccccc1)C(=O)O (stereo in doubt; 16B)
3.38	3.31		O=C(CC[C@H]1CCC[C@@H](NC(=O)[C@H](Cc2ccccc2)NC(=O)OCc2ccccc2)C1=O)N[C@@H](Cc1c[nH]c2ccccc12)C(=O)O
